“And” between values parts separate entries of the source, which are not always exact repeats. Equal values may be shown once. Inconclusive results and toxic doses are left out.
Test system: P388 leukemia ip, CD2F1 mice, survival T/C
Assay: NCI In Vivo Anticancer Drug Screen. Data for tumor model P388 Leukemia (intraperitoneal) in CD2F1 (CDF1) mice
Conditions: endpoint: median survival time, higher = longer survival
Method in brief: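 Mice carrying the transplanted tumor received test compound or vehicle. Survival was recorded in each group, and the value is the treated-group measurement divided by that of the vehicle-treated control group.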

[1] = dose: 60.0 mg/kg/injection, schedule: Q01DX005 (ip), vehicle: saline with Tween-80
[2] = dose: 120.0 mg/kg/injection, schedule: Q01DX005 (ip), vehicle: saline with Tween-80
[3] = dose: 240.0 mg/kg/injection, schedule: Q01DX005 (ip), vehicle: saline with Tween-80
[4] = dose: 6.25 mg/kg/injection, schedule: Q01DX005 (ip), vehicle: saline with Tween-80
[5] = dose: 50.0 mg/kg/injection, schedule: Q01DX009 (ip), vehicle: saline with Tween-80
[6] = dose: 100.0 mg/kg/injection, schedule: Q01DX009 (ip), vehicle: saline with Tween-80
[7] = dose: 25.0 mg/kg/injection, schedule: Q01DX005 (ip), vehicle: saline with Tween-80
[8] = dose: 50.0 mg/kg/injection, schedule: Q01DX005 (ip), vehicle: saline with Tween-80
[9] = dose: 100.0 mg/kg/injection, schedule: Q01DX005 (ip), vehicle: saline with Tween-80
[10] = dose: 12.5 mg/kg/injection, schedule: Q01DX009 (ip), vehicle: saline
[11] = dose: 25.0 mg/kg/injection, schedule: Q01DX009 (ip), vehicle: saline
[12] = dose: 100.0 mg/kg/injection, schedule: Q01DX009 (ip), vehicle: saline
[13] = dose: 50.0 mg/kg/injection, schedule: Q01DX009 (ip), vehicle: saline

Compound: O=C(O)CCCSC1=CC(=O)c2ccccc2C1=O
- T/C (dose: 1.56 mg/kg/injection, schedule: Q04DX003 (ip), vehicle: DMSO): 89 % of control
- T/C (dose: 3.12 mg/kg/injection, schedule: Q04DX003 (ip), vehicle: DMSO): 96 % of control
- T/C (dose: 6.25 mg/kg/injection, schedule: Q04DX003 (ip), vehicle: DMSO): 100 % of control and 93 % of control
- T/C (dose: 12.5 mg/kg/injection, schedule: Q04DX003 (ip), vehicle: DMSO): 100 % of control

Compound: CN1CCN(c2ncc(S(=O)(=O)Cc3ccc(Cl)cc3)c(N)n2)CC1
- T/C (dose: 100.0 mg/kg/injection, schedule: Q01DX001 (ip), vehicle: saline): 95 % of control
- T/C (dose: 200.0 mg/kg/injection, schedule: Q01DX001 (ip), vehicle: saline): 98 % of control
- T/C (dose: 400.0 mg/kg/injection, schedule: Q01DX001 (ip), vehicle: saline): 98 % of control

Compound: COc1cc(OC)c2cc(C(=O)c3ccc(C#N)cc3)c(=O)oc2c1
- T/C [1]: 94 % of control
- T/C [2]: 104 % of control
- T/C [3]: 105 % of control

Compound: CN(C)c1ccc(C(Cl)[O][Sn]([Cl])([c]2ccccc2)[c]2ccccc2)cc1.[CH3][Sn]([CH3])([Cl])[Cl] (stereo not drawn)
- T/C (dose: 1.56 mg/kg/injection, schedule: Q01DX005 (ip), vehicle: saline with Tween-80): 112 % of control
- T/C (dose: 3.12 mg/kg/injection, schedule: Q01DX005 (ip), vehicle: saline with Tween-80): 113 % of control and 119 % of control
- T/C [4]: 109 % of control

Compound: Cc1[nH]c(-c2ccccc2)c2[nH]c(=O)n(-c3ccccc3)c(=O)c12
- T/C (dose: 100.0 mg/kg/injection, schedule: Q04DX003 (ip), vehicle: Klucel (hydroxypropylcellulose) (HPC)): 93 % of control
- T/C (dose: 200.0 mg/kg/injection, schedule: Q04DX003 (ip), vehicle: Klucel (hydroxypropylcellulose) (HPC)): 98 % of control
- T/C (dose: 400.0 mg/kg/injection, schedule: Q04DX003 (ip), vehicle: Klucel (hydroxypropylcellulose) (HPC)): 93 % of control

Compound: O=c1c2ccccc2[nH]c(=S)n1-c1cccc(C(F)(F)F)c1
- T/C [5]: 92 % of control
- T/C [6]: 94 % of control
- T/C (dose: 200.0 mg/kg/injection, schedule: Q01DX009 (ip), vehicle: saline with Tween-80): 100 % of control

Compound: O=c1[nH]cnc2c1ccc1[nH]ncc12
- T/C [4]: 88 % of control
- T/C (dose: 12.5 mg/kg/injection, schedule: Q01DX005 (ip), vehicle: saline with Tween-80): 90 % of control
- T/C [7]: 86 % of control
- T/C [8]: 97 % of control
- T/C [9]: 99 % of control

Compound: CC1=CC(C)CN(C)C1 (stereo not drawn)
- T/C (dose: 6.25 mg/kg/injection, schedule: Q01DX005 (ip), vehicle: saline): 102 % of control
- T/C (dose: 12.5 mg/kg/injection, schedule: Q01DX005 (ip), vehicle: saline): 100 % of control
- T/C (dose: 25.0 mg/kg/injection, schedule: Q01DX005 (ip), vehicle: saline): 105 % of control

Compound: Cn1nc(-c2cccc(F)c2)[n+](C)n1
- T/C (dose: 50.0 mg/kg/injection, schedule: Q01DX005 (ip), vehicle: saline): 102 % of control
- T/C (dose: 100.0 mg/kg/injection, schedule: Q01DX005 (ip), vehicle: saline): 98 % of control

Compound: CCOC(=O)CN=C(c1ccccc1)c1ccccc1
- T/C (dose: 6.25 mg/kg/injection, schedule: Q01DX009 (ip), vehicle: saline): 105 % of control
- T/C [10]: 105 % of control
- T/C [11]: 105 % of control
- T/C [12]: 89 % of control

Compound: c1ccc(OCC2CO2)c(OCC2CO2)c1 (stereo not drawn)
- T/C (dose: 1.88 mg/kg/injection, schedule: Q01DX005 (ip), vehicle: saline with Tween-80): 100 % of control
- T/C (dose: 3.75 mg/kg/injection, schedule: Q01DX005 (ip), vehicle: saline with Tween-80): 100 % of control
- T/C (dose: 7.5 mg/kg/injection, schedule: Q01DX005 (ip), vehicle: saline with Tween-80): 99 % of control
- T/C (dose: 15.0 mg/kg/injection, schedule: Q01DX005 (ip), vehicle: saline with Tween-80): 111 % of control and 114 % of control and 121 % of control
- T/C [7]: 104 % of control
- T/C [8]: 112 % of control
- T/C [3]: 156 % of control and 157 % of control and 201 % of control

Compound: COC1=CC(=O)c2cc3ccc(OC)c(N)c3nc2C1=O
- T/C (dose: 100.0 mg/kg/injection, schedule: Q01DX001 (ip), vehicle: Klucel (hydroxypropylcellulose) (HPC)): 100 % of control
- T/C (dose: 200.0 mg/kg/injection, schedule: Q01DX001 (ip), vehicle: Klucel (hydroxypropylcellulose) (HPC)): 102 % of control

Compound: CC(=O)OCC1=CCCC1=O
- T/C (dose: 25.0 mg/kg/injection, schedule: Q01DX009 (ip), vehicle: Klucel (hydroxypropylcellulose) (HPC)): 111 % of control

Compound: C[N+](C)(C)CCCO
- T/C [10]: 98 % of control
- T/C [11]: 94 % of control
- T/C [13]: 93 % of control

Compound: CC(=O)OC1CC(O)C23COC(O)C1C2CC(O)C1(C)C3C(=O)CC2(C)C(c3ccoc3)CC3OC321 (stereo not drawn)
- T/C (dose: 0.25 mg/kg/injection, schedule: Q01DX009 (ip), vehicle: Klucel (hydroxypropylcellulose) (HPC)): 103 % of control
- T/C (dose: 0.5 mg/kg/injection, schedule: Q01DX009 (ip), vehicle: Klucel (hydroxypropylcellulose) (HPC)): 99 % of control
- T/C (dose: 1.0 mg/kg/injection, schedule: Q01DX009 (ip), vehicle: Klucel (hydroxypropylcellulose) (HPC)): 111 % of control
- T/C (dose: 2.0 mg/kg/injection, schedule: Q01DX009 (ip), vehicle: Klucel (hydroxypropylcellulose) (HPC)): 90 % of control

Compound: COc1ccc(-c2cc(-c3ccccc3)nc(-c3cccc([N+](=O)[O-])c3)c2)cc1
- T/C (dose: 50.0 mg/kg/injection, schedule: Q01DX009 (ip), vehicle: Klucel (hydroxypropylcellulose) (HPC)): 100 % of control
- T/C (dose: 100.0 mg/kg/injection, schedule: Q01DX009 (ip), vehicle: Klucel (hydroxypropylcellulose) (HPC)): 124 % of control
- T/C (dose: 200.0 mg/kg/injection, schedule: Q01DX009 (ip), vehicle: Klucel (hydroxypropylcellulose) (HPC)): 97 % of control

Compound: COc1c2c(c(OC)c3c1C(=O)C(=O)C=C3O)OCO2
- T/C (dose: 60.0 mg/kg/injection, schedule: Q01DX005 (ip), vehicle: Klucel (hydroxypropylcellulose) (HPC)): 104 % of control
- T/C (dose: 120.0 mg/kg/injection, schedule: Q01DX005 (ip), vehicle: Klucel (hydroxypropylcellulose) (HPC)): 113 % of control

Compound: CC(=O)C[C@H](c1ccccc1)c1ccccc1[C@H](C)N(C)C
- T/C [1]: 106 % of control
- T/C [2]: 104 % of control

Compound: CCNC(=O)/C=C/c1cccc(Br)c1
- T/C [8]: 105 % of control
- T/C [9]: 105 % of control
- T/C (dose: 200.0 mg/kg/injection, schedule: Q01DX005 (ip), vehicle: saline with Tween-80): 98 % of control

Compound: CC(C)N[P+](c1ccccc1)(c1ccccc1)c1ccccc1
- T/C (dose: 25.0 mg/kg/injection, schedule: Q04DX003 (ip), vehicle: saline): 96 % of control

Compound: CCCCCC/C(CC(SCC)c1ccccc1Cl)=N\NC(N)=O (stereo not drawn)
- T/C (dose: 60.0 mg/kg/injection, schedule: Q01DX005 (ip), vehicle: saline + Tween-80 + alcohol): 105 % of control
- T/C (dose: 120.0 mg/kg/injection, schedule: Q01DX005 (ip), vehicle: saline + Tween-80 + alcohol): 97 % of control
- T/C (dose: 240.0 mg/kg/injection, schedule: Q01DX005 (ip), vehicle: saline + Tween-80 + alcohol): 100 % of control

Compound: COC(=O)C(CO)NC(=O)OCc1ccccc1 (stereo not drawn)
- T/C (dose: 25.0 mg/kg/injection, schedule: Q01DX005 (ip), vehicle: water): 99 % of control
- T/C (dose: 50.0 mg/kg/injection, schedule: Q01DX005 (ip), vehicle: water): 94 % of control
- T/C (dose: 50.0 mg/kg/injection, schedule: Q01DX009 (ip), vehicle: distilled water + alcohol): 95 % of control
- T/C (dose: 100.0 mg/kg/injection, schedule: Q01DX005 (ip), vehicle: water): 105 % of control
- T/C (dose: 100.0 mg/kg/injection, schedule: Q01DX009 (ip), vehicle: distilled water + alcohol): 98 % of control
- T/C (dose: 200.0 mg/kg/injection, schedule: Q01DX005 (ip), vehicle: water): 99 % of control
- T/C (dose: 200.0 mg/kg/injection, schedule: Q01DX009 (ip), vehicle: distilled water + alcohol): 100 % of control
- T/C (dose: 400.0 mg/kg/injection, schedule: Q01DX009 (ip), vehicle: distilled water + alcohol): 96 % of control

Compound: CCOC(=O)c1c[nH]c(=S)n(CCOC)c1=O
- T/C (dose: 25.0 mg/kg/injection, schedule: Q01DX009 (ip), vehicle: saline with Tween-80): 92 % of control
- T/C [5]: 108 % of control
- T/C [6]: 115 % of control

Compound: O=S(=O)(c1cnccc1N1CCN(CCO)CC1)N1CCCC1
- T/C [13]: 106 % of control
- T/C [12]: 101 % of control
- T/C (dose: 200.0 mg/kg/injection, schedule: Q01DX009 (ip), vehicle: saline): 87 % of control
